From patent US11092532B2, “Method and device for label-free, high throughput holographic screening and enumeration of tumor cells in blood” (Texas Tech University System, priority 2017, dated 2021)

Assays:
[1] = tested on: breast cancer cell line MCF-7; experiment: dose-dependent cytotoxicity, viability analysis using standard epifluorescence microscopy; type: cell-based; settings: FIG. 8B
From the text: The method involves using a microfluidic device with multiple inlets to flow different samples adjacent to each other as shown in FIG. 8A. Since the flow is laminar, there is no mixing and identity of each sample is encoded spatially into the microfluidic device. Integrating DHM into this multi-inlet device, the inventors can capture holograms where each hologram contains information of the multiple samples that are spatially segregated. […] FIG. 8A is an image showing a multiple entry microfluidic device for parallel loading of multiple samples. Red arrows indicate the recording window for DHM cytometry for drug response analysis. […] For example, in drug screening there is a need to conduct dose response analysis where different drug concentrations are used to test their impact on the viability of cells (see FIG. 8B for viability analysis using standard fluorescence imaging). To achieve parallel analysis, cells treated with different doses of drug can be introduced into the multi-inlet device and label-free DHM can be used to obtain dose-response curves. Cell culture and drug treatment can also be conducted in the inlet wells of the device or additional microfluidic devices can be daisy-chained prior to DHM interrogation.

[2] = tested on: breast cancer cells MCF7; experiment: inline-DHM cytometry for drug response analysis; type: cell-based
From the text: Briefly, as shown in FIG. 1A the in-line DHM arrangement consists of a laser, a spatial filter and collimator assembly, and an inverted optical microscope (IX-71, Olympus Inc.). A He—Ne laser (10 mW, λ, =0.6328 μm, Thorlabs) is used as a light source, operating in continuous wave (CW) mode. The laser beam is filtered and expanded by a spatial filter assembly consisting of a microscope objective (10×, NA=0.25; Thorlabs) and a pinhole (25 μm diameter). The expanded beam is then collimated using a plano-convex lens (focal length, f=100 mm, Thorlabs). The diameter of the collimated beam is approximately 5 mm. This collimated beam of laser light illuminates cells or beads flowing in the microfluidic channel. The flow through the channel is generated by a syringe pump (KD Scientific). The cross-sectional dimensions of the channel are 1000(y)×350(z) μm^2. The 2D hologram of cells or beads is generated in the focal plane of the microscope objective (M=10×, NA=0.25; Thorlabs) of the optical microscope. The magnified image of the hologram is recorded on a CMOS camera (Phantom v310, Vision Research) at a resolution of 512×512 (20 μm/pixel) and 12-bit gray level quantization.
The recoded holograms were transferred to a computer for numerical reconstruction and data analysis.
The probability distribution corresponding to maximum intensity (Imax) of center pixel of focused image of breast cancer cells (MCF7) at different doses of doxorubicin (FIG. 9A) 0.0 μM, (FIG. 9B) 0.0001 μM, (FIG. 9C) 0.01 μM, and (FIG. 9D) 0.1 μM.

Question: Which results are given for COc1cccc2c1C(=O)c1c(O)c3c(c(O)c1C2=O)C[C@@](O)(C(=O)CO)C[C@@H]3O[C@H]1C[C@H](N)[C@H](O)[C@H](C)O1 [doxorubicin]?
Answer: cytotoxicity (viability of cells) [1]: dose-dependent cytotoxicity; maximum intensity (Imax) distribution of focused cell image ([2]; MCF-7 cells treated with 0.0001 μM doxorubicin, FIG. 9B): some are affected and their peak intensity shifts to lower values; maximum intensity (Imax) distribution of focused cell image ([2]; MCF-7 cells treated with 0.01 μM doxorubicin, FIG. 9C): the number of cells showing lower intensity (Imax) increases; maximum intensity (Imax) distribution of focused cell image ([2]; MCF-7 cells treated with 0.1 μM doxorubicin, FIG. 9D): the number of cells showing lower intensity (Imax) increases
